# Measured values published in patent US11261186B2, “Biaryl derivative as GPR120 agonist” (LG CHEM, LTD., priority 2014, dated 2022).
# Biological target: T1, hGPR120 (Homo sapiens, UniProt Q5NUL3)
# T1 construct: expressed in transfected cells; host or cells: CHO-K1
# T1 sequence (Q5NUL3 1-361): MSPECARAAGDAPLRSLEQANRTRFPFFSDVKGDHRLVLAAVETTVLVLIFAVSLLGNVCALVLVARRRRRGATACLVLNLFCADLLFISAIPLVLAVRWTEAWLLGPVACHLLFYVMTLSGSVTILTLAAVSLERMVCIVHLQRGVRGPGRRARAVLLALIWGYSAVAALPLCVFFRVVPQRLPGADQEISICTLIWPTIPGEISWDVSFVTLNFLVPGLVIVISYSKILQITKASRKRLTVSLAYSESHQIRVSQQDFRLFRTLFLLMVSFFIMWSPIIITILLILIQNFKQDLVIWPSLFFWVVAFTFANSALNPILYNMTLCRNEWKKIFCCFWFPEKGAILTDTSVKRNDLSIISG
# Assay: Measurement of Activity of GPR120 Agonist (Cell-Based Assay), Calcium 5 dye fluorescence
# Settings: CHO-K1 cells expressing Ga16 and hGPR120
# Method in brief: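 CHO-K1 cells co-expressing Gα16 and hGPR120, plated 18 h, loaded 1 h at 37°C with Calcium 5 dye. Serially diluted agonists added at 0.5% DMSO final; fluorescence read at Ex 485/Em 525 nm and expressed as relative % of DMSO-only signal.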
row,SMILES,EC50
1,"O=C(O)CCCOc1c(F)cc(-c2cccc3c2OC(F)(F)O3)cc1F [Example 290, 4-[4-(2,2-difluoro-benzo[1,3]dioxol-4-yl)-2,6-difluoro-phenoxy]-butyric acid]",< 200 nM
2,"CC1(C)Cc2c(cccc2-c2cc(F)c(OCCCC(=O)O)c(F)c2)O1 [Example 291, 4-[4-(2,2-dimethyl-2,3-dihydro-benzofuran-4-yl)-2,6-difluoro-phenoxy]-butyric acid]",< 200 nM
3,"O=C(O)CC1CCN(c2c(F)cc(-c3cccc(OC4CCC4)n3)cc2F)CC1 [Example 294, 2-[1-[4-[6-(cyclobutoxy)-2-pyridyl]-2,6-difluoro-phenyl]-4-piperidyl]acetic acid]",< 200 nM
4,"O=C(O)CC1CCN(c2c(F)cc(-c3cccc(OC4CCCC4)n3)cc2F)CC1 [Example 299, 2-[1-[4-[6-(cyclopentoxy)-2-pyridyl]-2,6-difluoro-phenyl]-4-piperidyl]acetic acid]",200 to 2000 nM
5,"O=C(O)CC1CCN(c2c(F)cc(-c3cccc(OC4CCC4)c3)cc2F)CC1 [Example 300, 2-[1-[4-[3-(cyclobutoxy)phenyl]-2,6-difluoro-phenyl]-4-piperidyl]acetic acid]",200 to 2000 nM
6,"O=C(O)CC1CCN(c2c(F)cc(-c3ccc(F)c(OC4CCC4)c3)cc2F)CC1 [Example 304, 2-[1-[4-[3-(cyclobutoxy)-4-fluoro-phenyl]-2,6-difluoro-phenyl]-4-piperidyl]acetic acid]",200 to 2000 nM
7,"COc1ccc(-c2cc(F)c(N3CCC(CC(=O)O)CC3)c(F)c2)cc1OC1CCC1 [Example 305, 2-[1-[4-[3-(cyclobutoxy)-4-methoxy-phenyl]-2,6-difluoro-phenyl]-4-piperidyl]acetic acid]",200 to 2000 nM
8,"O=C(O)CC1CCN(c2c(F)cc(-c3cc(F)cc(OC4CCC4)c3)cc2F)CC1 [Example 306, 2-[1-[4-[3-(cyclobutoxy)-5-fluoro-phenyl]-2,6-difluoro-phenyl]-4-piperidyl]acetic acid]",200 to 2000 nM
9,"CC(C)(C)Oc1cccc(-c2cc(F)c(N3CCC(CC(=O)O)CC3)c(F)c2)n1 [Example 309, 2-[1-[4-(6-tert-butoxy-2-pyridyl)-2,6-difluoro-phenyl]-4-piperidyl]acetic acid]",200 to 2000 nM
10,"Cc1c(OC2CCC2)cccc1-c1cc(F)c(N2CCC(CC(=O)O)CC2)c(F)c1 [Example 310, 2-[1-[4-[3-(cyclobutoxy)-2-methyl-phenyl]-2,6-difluoro-phenyl]-4-piperidyl]acetic acid]",2000 to 20000 nM
11,"O=C(O)CC1CCN(c2c(F)cc(-c3ccc(Cl)c(OC4CCC4)n3)cc2F)CC1 [Example 311, 2-[1-[4-[5-chloro-6-(cyclobutoxy)-2-pyridyl]-2,6-difluoro-phenyl]-4-piperidyl]acetic acid]",200 to 2000 nM
12,"O=C(O)CC1CCN(c2c(F)cc(-c3cccc(COC4CCC4)n3)cc2F)CC1 [Example 313, 2-[1-[4-[6-(cyclobutoxymethyl)-2-pyridyl]-2,6-difluoro-phenyl]-4-piperidyl]acetic acid]",> 20000 nM
13,"O=C(O)CC1CCN(c2c(F)cc(-c3cccc(OC4CCC4)n3)cc2Cl)CC1 [Example 319, 2-[1-[2-chloro-4-[6-(cyclobutoxy)-2-pyridyl]-6-fluoro-phenyl]-4-piperidyl]acetic acid]",200 to 2000 nM

# Continued, values first:
row,EC50,SMILES
1,2000 to 20000 nM,"O=C(O)CCCOc1c(F)cc(-c2cccnc2SC2CCCCC2)cc1F [Example 292, 4-[4-(2-cyclohexylsulfanyl-pyridin-3-yl)-2,6-difluoro-phenoxy]-butyric acid]"
2,200 to 2000 nM,"O=C(O)CCSCc1ccc(-c2cccnc2OC2CCCC2)cc1 [Example 293, 3-[4-(2-cyclopentyloxy-pyridin-3-yl)-benzylsulfanyl]-propionic acid]"
3,< 200 nM,"CCCOc1cccc(-c2cc(F)c(N3CCC(CC(=O)O)CC3)c(F)c2)n1 [Example 295, 2-[1-[2,6-difluoro-4-(6-propoxy-2-pyridyl)phenyl]-4-piperidyl]acetic acid]"
4,< 200 nM,"CC(C)Oc1cccc(-c2cc(F)c(N3CCC(CC(=O)O)CC3)c(F)c2)n1 [Example 296, 2-[1-[2,6-difluoro-4-(6-isopropoxy-2-pyridyl)phenyl]-4-piperidyl]acetic acid]"
5,200 to 2000 nM,"O=C(O)CC1CCN(c2c(F)cc(-c3cccc(SC4CCC4)n3)cc2F)CC1 [Example 297, 2-[1-[4-(6-cyclobutylsulfanyl-2-pyridyl)-2,6-difluoro-phenyl]-4-piperidyl]acetic acid]"
6,200 to 2000 nM,"CCCSc1cccc(-c2cc(F)c(N3CCC(CC(=O)O)CC3)c(F)c2)n1 [Example 298, 2-[1-[2,6-difluoro-4-(6-propylsulfanyl-2-pyridyl)phenyl]-4-piperidyl]acetic acid]"
7,200 to 2000 nM,"O=C(O)CC1CCN(c2c(F)cc(-c3cccc(OCC4CC4)c3)cc2F)CC1 [Example 301, 2-[1-[4-[3-(cyclopropylmethoxy)phenyl]-2,6-difluoro-phenyl]-4-piperidyl]acetic acid]"
8,200 to 2000 nM,"CC(C)OCc1cccc(-c2cc(F)c(N3CCC(CC(=O)O)CC3)c(F)c2)c1 [Example 302, 2-[1-[2,6-difluoro-4-[3-(isopropoxymethyl)phenyl]phenyl]-4-piperidyl]acetic acid]"
9,200 to 2000 nM,"CCOCc1cccc(-c2cc(F)c(N3CCC(CC(=O)O)CC3)c(F)c2)c1 [Example 303, 2-[1-[4-[3-(ethoxymethyl)phenyl]-2,6-difluoro-phenyl]-4-piperidyl]acetic acid]"
10,200 to 2000 nM,"O=C(O)CC1CCN(c2c(F)cc(-c3cccc(OCC4CC4)n3)cc2Cl)CC1 [Example 307, 2-[1-[2-chloro-4-[6-(cyclopropylmethoxy)-2-pyridyl]-6-fluoro-phenyl]-4-piperidyl]acetic acid]"
11,200 to 2000 nM,"O=C(O)CC1CCN(c2c(F)cc(-c3cccc(OCC4CCC4)n3)cc2F)CC1 [Example 308, 2-[1-[4-[6-(cyclobutylmethoxy)-2-pyridyl]-2,6-difluoro-phenyl]-4-piperidyl]acetic acid]"
12,200 to 2000 nM,"O=C(O)CC1CCN(c2c(F)cc(-c3cccc(C(=O)C4CC4)n3)cc2F)CC1 [Example 312, 2-[1-[4-[6-(cyclopropanecarbonyl)-2-pyridyl]-2,6-difluoro-phenyl]-4-piperidyl]acetic acid]"
13,200 to 2000 nM,"CCOc1cccc(-c2cc(F)c(N3CCC(CC(=O)O)CC3)c(F)c2)n1 [Example 314, 2-[1-[4-(6-ethoxy-2-pyridyl)-2,6-difluoro-phenyl]-4-piperidyl]acetic acid]"
14,200 to 2000 nM,"O=C(O)CC1CCN(c2c(F)cc(-c3cccc(OCC(F)(F)F)n3)cc2F)CC1 [Example 315, 2-[1-[2,6-difluoro-4-[6-(2,2,2-trifluoroethoxy)-2-pyridyl]phenyl]-4-piperidyl]acetic acid]"
15,200 to 2000 nM,"CC(Oc1cccc(-c2cc(F)c(N3CCC(CC(=O)O)CC3)c(F)c2)n1)C(F)(F)F (stereo not drawn) [Example 316, 2-[1-[2,6-difluoro-4-[6-(2,2,2-trifluoro-1-methyl-ethoxy)-2-pyridyl]phenyl]-4-piperidyl]acetic acid]"
16,200 to 2000 nM,"O=C(O)CC1CCN(c2c(F)cc(-c3cccc(C4CCCC4)n3)cc2F)CC1 [Example 317, 2-[1-[4-(6-cyclopentyl-2-pyridyl)-2,6-difluoro-phenyl]-4-piperidyl]acetic acid]"
17,2000 to 20000 nM,"COC(c1cccc(-c2cc(F)c(N3CCC(CC(=O)O)CC3)c(F)c2)n1)C1CC1 (stereo not drawn) [Example 318, 2-[1-[4-[6-[cyclopropyl(methoxy)methyl]-2-pyridyl]-2,6-difluoro-phenyl]-4-piperidyl]acetic acid]"
